This note sets out measurements from EP0737691A1, “Bombesin analogs” (BIOMEASURE, INC., priority 1995, dated 1996).

Where two headings read alike, the source gives them in different places. Square brackets hold non-standard residues; d marks the D form. Peptide text beside a SMILES is read from it. Nle = CCCC[C@H](N)C(=O)O; βAla = NCCC(=O)O

For assay [1], the target named is T1, rat NMB receptor (Rattus norvegicus, UniProt P24053).
T1 construct: expressed in transfected cells; host or cells: BALB-3T3 (mouse) fibroblasts
T1 sequence (P24053 1-390): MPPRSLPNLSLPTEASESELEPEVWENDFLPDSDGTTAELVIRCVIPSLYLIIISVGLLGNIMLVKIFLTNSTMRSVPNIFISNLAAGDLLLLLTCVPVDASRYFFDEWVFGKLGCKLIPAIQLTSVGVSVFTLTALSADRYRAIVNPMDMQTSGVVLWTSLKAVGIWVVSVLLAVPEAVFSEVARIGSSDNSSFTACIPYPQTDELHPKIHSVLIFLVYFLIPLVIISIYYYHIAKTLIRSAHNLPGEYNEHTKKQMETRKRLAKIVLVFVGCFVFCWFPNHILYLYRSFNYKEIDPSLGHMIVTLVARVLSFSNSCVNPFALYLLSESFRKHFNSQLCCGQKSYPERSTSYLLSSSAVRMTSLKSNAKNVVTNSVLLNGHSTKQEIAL
Description: NMB Receptor Binding Assay (membranes of BALB-3T3 fibroblasts transfected with the rat NMB receptor). As to conditions: for IC50: affinity for the NMB receptor, BALB-3T3 fibroblasts transfected with the rat NMB receptor, 30 min, 4°C. Here is the method:
The procedure for transfecting the rat NMB receptor into BALB-3T3 fibroblasts is discussed in Wada, et al., Neuron, […] (1991) and Benya, et al., Mol. Pharmacol., 42:1058 (1992).
Membranes for the bombesin receptor binding assay were obtained by homogenizing […] fibroblasts, transfected with the rat NMB receptor (Polytron, setting 6, 15 sec) in ice-cold 50 mM Tris-HCl (Buffer A) and centrifuging twice at 39,000 x g (10 min), with an intermediate resuspension in fresh Buffer A. The final pellets were resuspended in 50 mM Tris-HCl, containing 0.1 mg/ml bacitracin, and 0.1% BSA (Buffer B), and held on ice for the receptor binding assay.
For assay, aliquots (0.4 ml) were incubated with 0.05 ml [^125 I-Tyr^4] bombesin (∼2200 Ci/mmol, New England Nuclear) and Buffer B, with and without 0.05 ml of unlabeled competing analogs. After a 30 min incubation (4°C), the bound [^125 I-Tyr^4] bombesin was separated from the free by rapid filtration through Whatman™ GF/B filters which had been previously soaked in 0.3% polyethyleneimine using a Brandel filtration manifold. The filters were then washed three times with 5 ml aliquots of ice-cold Buffer A. Specific binding was defined as the total [^125 I-Tyr^4] […] bound minus that bound in the presence of 1 µM unlabeled neuromedin-B.
Replacement of Gly at position A^6 in a prior art compound (i.e., litorin, leu-litorin, and [D-Phe^1, Leu^8,9] litorin) with β-Ala led unexpectedly to a great increase in their affinity for the NMB receptor. […] Modifications at position A^1, A^8, or A^9 further increases the affinity. […]

Assay [2] deals with T2, GRP receptor (Rattus norvegicus, UniProt P52500).
T2 construct: endogenous in cells; host or cells: Rat AR42J pancreatic acinar cells (membranes)
T2 sequence (P52500 whole entry): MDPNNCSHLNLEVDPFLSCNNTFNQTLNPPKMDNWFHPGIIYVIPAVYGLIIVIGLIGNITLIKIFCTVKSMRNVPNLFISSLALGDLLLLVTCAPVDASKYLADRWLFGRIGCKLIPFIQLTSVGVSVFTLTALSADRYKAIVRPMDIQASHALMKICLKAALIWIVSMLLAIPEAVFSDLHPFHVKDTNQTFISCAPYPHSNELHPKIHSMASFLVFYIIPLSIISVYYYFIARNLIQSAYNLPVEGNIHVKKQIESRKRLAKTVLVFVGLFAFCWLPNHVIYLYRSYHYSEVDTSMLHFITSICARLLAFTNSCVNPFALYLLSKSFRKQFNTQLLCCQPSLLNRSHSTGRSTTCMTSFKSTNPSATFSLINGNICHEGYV
Description: GRP Receptor Binding Assay ([125I-Tyr4] bombesin displacement, AR42J cell membranes). Here is the method:
Rat AR42J pancreatic acinar cells were cultured in Dulbecco's modified Eagle's medium without antibiotics and supplemented with 10% (vol/vol) fetal calf serum. The incubation atmosphere consisted of 10% CO2-90% humidified air at 37°C.
Membranes for the bombesin receptor binding assay were obtained by homogenizing AR42J cells (Polytron, setting 6, 15 sec)(Brinkman, Westbury, NY) in ice-cold 50 mM Tris-HCl (Buffer A) and centrifuging twice at 39,000 x g (10 min), with an intermediate resuspension in fresh Buffer A. The final pellets were resuspended in 50 mM Tris-HCl, containing 0.1 mg/ml bacitracin, and 0.1% BSA (Buffer B), and held on ice for the receptor binding assay.

Assay [3] concerns R-3327/H prostate tumor. Description: Assay on in vivo prostate tumor growth. As to conditions: 200 mg/inj. s.c., B.I.D., 24 days; castrated rats with tumors escaped from castration inhibition; versus vehicle; after day 17; Fig. 1. Further details: species or system Copenhagen male rats. The text has this: The androgen responsive R-3327/H prostate tumor line was implanted into 38 testes-intact, syngeneic Copenhagen male rats. The tumored animals were individually staged for castration when their tumors reached a size approximating 235 mgs. Tumors were then staged for bombesin analogue treatment when two sequential tumor measurements indicated an "escape from castration inhibition" condition, as evidenced by an increase in tumor growth rate. This transition of the prostate tumor tissue from androgen sensitive to androgen insensitive occurred without surgical perturbation of the tumor, thus providing a clinically realistic model for evaluating the anti-prostate tumor activity of the bombesin analogues.
The tumored animals were separated into two groups of 19 animals. Treatment was only initiated when tumors reached the "escape from castration inhibition" condition. Group 1 received 0.2 ml/inj. of 2.6% glycerol/water vehicle, (s.c., B.I.D.). Group 2 received a […]. of Analog #5 (s.c., B.I.D.). […] Tumors were measured using Vernier calipers and the volume was calculated using the following formula: (0.5)(length)(width)^2
Fig. 1 illustrates the tumor growth inhibitory effect of the treatments in Group 1 and Group 2. Relative tumor volume was calculated by the following formula: (Tumor Volume (measuring day))/(Tumor Volume (staging day))x 100 [formula] […]

The mark [4] stands for this setting: affinity for the GRP receptor, [125I-Tyr4] bombesin, rat AR42J pancreatic acinar cell membranes, 30 min, 4°C, read-out: IC50.

The compound `CCCC[C@H](NC(=O)[C@H](Cc1ccccc1)NC(=O)[C@H](Cc1cnc[nH]1)NC(=O)CCNC(=O)[C@@H](NC(=O)[C@H](C)NC(=O)[C@H](Cc1c[nH]c2ccccc12)NC(=O)[C@H](CCC(N)=O)NC(=O)[C@H](N)Cc1ccc(O)cc1)C(C)C)C(N)=O` [Analog #3, H-D-Tyr-Gln-Trp-Ala-Val-β-Ala-His-Phe-Nle-NH2] (H-[dY]QWAV[βAla]HF[Nle]-NH2) yielded an IC50 in assay [1] of 1 nM.
`CC(C)C[C@H](NC(=O)[C@H](CC(C)C)NC(=O)[C@H](Cc1c[nH]cn1)NC(=O)CCNC(=O)[C@@H](NC(=O)[C@H](C)NC(=O)[C@H](Cc1c[nH]c2ccccc12)NC(=O)[C@H](CCC(N)=O)NC(=O)[C@H](N)Cc1ccccc1)C(C)C)C(N)=O` [Analog #2, H-D-Phe-Gln-Trp-Ala-Val-β-Ala-His-Leu-Leu-NH2] (H-[dF]QWAV[βAla]HLL-NH2): the 50% inhibitory concentration (IC50) in assay [1] amounted to 41 nM; in assay [2] (setting [4]) it was 1 nM. The “increase in the affinity for the NMB receptor” value in assay [1] (fold increase compared with litorin or [D-Phe1, Leu8,9] litorin) worked out at 11.7 time.
In the case of `CSCC[C@H](NC(=O)[C@H](Cc1ccccc1)NC(=O)[C@H](Cc1c[nH]cn1)NC(=O)CNC(=O)[C@@H](NC(=O)[C@H](C)NC(=O)[C@H](Cc1c[nH]c2ccccc12)NC(=O)[C@H](CCC(N)=O)NC(=O)[C@@H]1CCC(=O)N1)C(C)C)C(N)=O` [Litorin, p-Glu-Gln-Trp-Ala-Val-Gly-His-Phe-Met-NH2, reference compound], the IC50 in assay [1] came out at 1.66 nM; in assay [2] it was 2.4 nM.
Regarding `CC(C)C[C@H](NC(=O)[C@H](CC(C)C)NC(=O)[C@H](Cc1c[nH]cn1)NC(=O)CNC(=O)[C@@H](NC(=O)[C@H](C)NC(=O)[C@H](Cc1c[nH]c2ccccc12)NC(=O)[C@H](CCC(N)=O)NC(=O)[C@@H]1CCC(=O)N1)C(C)C)C(N)=O` [Leu-Litorin, p-Glu-Gln-Trp-Ala-Val-Gly-His-Leu-Leu-NH2, reference compound], the IC50 was greater than 10000 nM in assay [1] and 23 nM in assay [2]. Besides, the “binding affinity on the NMB receptor” value in assay [1] (result in words) is recorded as “almost no binding affinity”.
In the case of `CCCC[C@H](NC(=O)[C@H](Cc1ccccc1)NC(=O)[C@H](Cc1c[nH]cn1)NC(=O)CCNC(=O)[C@@H](NC(=O)[C@H](C)NC(=O)[C@H](Cc1c[nH]c2ccccc12)NC(=O)[C@H](CCC(N)=O)NC(=O)[C@H](N)Cc1ccccc1)C(C)C)C(N)=O` [Analog #1, H-D-Phe-Gln-Trp-Ala-Val-β-Ala-His-Phe-Nle-NH2] (H-[dF]QWAV[βAla]HF[Nle]-NH2), the IC50 in assay [1] was found to be 1 nM; in assay [2] (setting [4]), 0.2 nM.
The like results for `CCCC[C@H](NC(=O)[C@H](Cc1ccccc1)NC(=O)[C@H](Cc1c[nH]cn1)NC(=O)CCNC(=O)[C@@H](NC(=O)[C@H](C)NC(=O)[C@H](Cc1c[nH]c2ccccc12)NC(=O)[C@H](CCC(N)=O)NC(=O)[C@H](N)Cc1c[nH]c2ccccc12)C(C)C)C(N)=O` [Analog #4, H-D-Trp-Gln-Trp-Ala-Val-β-Ala-His-Phe-Nle-NH2] (H-[dW]QWAV[βAla]HF[Nle]-NH2) were, in that order, 0.04 nM and 0.1 nM.
As to `CCCC[C@H](NC(=O)[C@H](CC(C)C)NC(=O)[C@H](Cc1c[nH]cn1)NC(=O)CCNC(=O)[C@@H](NC(=O)[C@H](C)NC(=O)[C@H](Cc1c[nH]c2ccccc12)NC(=O)[C@H](CCC(N)=O)NC(=O)[C@H](N)Cc1ccccc1)C(C)C)C(N)=O` [Analog #5, H-D-Phe-Gln-Trp-Ala-Val-β-Ala-His-Leu-Nle-NH2] (H-[dF]QWAV[βAla]HL[Nle]-NH2), in assay [3], the “Rate of tumor growth” value is reported as “significantly (p < 0.05) inhibited”. The IC50 in assay [1] turned out to be 8.9 nM; in assay [2] (setting [4]), 2.1 nM.
As for `CC(C)C[C@H](NC(=O)[C@H](CC(C)C)NC(=O)[C@H](Cc1c[nH]cn1)NC(=O)CNC(=O)[C@@H](NC(=O)[C@H](C)NC(=O)[C@H](Cc1c[nH]c2ccccc12)NC(=O)[C@H](CCC(N)=O)NC(=O)[C@H](N)Cc1ccccc1)C(C)C)C(N)=O` [[D-Phe^1, Leu^8,9] litorin, H-D-Phe-Gln-Trp-Ala-Val-Gly-His-Leu-Leu-NH2, reference compound], the IC50 in assay [1] stood at 480 nM; in assay [2], 2.8 nM.

In general, IC50 refers to the concentration that gives 50% inhibition.
